Test results from US12708625B2, “Pharmaceutical composition for improving or treating post-surgical hypoparathyroidism and treatment method using the same” (DONGGUK UNIVERSITY INDUSTRY-ACADEMIC COOPERATION FOUNDATION, priority 2019, dated 2026).

Columns and labels:
Assay type in all cases: in vivo, rat
[1] = test system: hemi-parathyroidectomy model; experiment: Administration of AXT914 in hemi-parathyroidectomy model (Experimental Schedule 1): serum PTH, calcium, phosphorus, urine calcium/creatinine; conditions: for urine calcium/creatinine ratio: 24 h urine on Day 13
Description: (§1) 9-week-old female Wistar rats were purchased from Koatech Co., Ltd. (Korea), and housed in an SPF room at a temperature of 21 to 23° C. and a humidity of 40 to 60% using a standard cage and under 12 hours cycles of light and darkness. The rats were acclimatized to the room for 1 week while being fed with a standard laboratory feed, and then used in the experiment. All care and experiments of experimental animals were performed following the guidelines by Animal Research Institute of Medical Science at Dongguk University, and the experimental schedule was approved by the Animal Institutional Review Board (AIRB No. 2016-04149 and AIRB No. 2019-07188).
(§2) To construct a post-surgical hypoparathyroidism rat model, 10-week-old rats acclimatized for 1 week were used.
(§3) To identify the parathyroid gland, a photosensitization method using 5-aminolevulinic acid hydrochloride (5-ALA) was performed. Briefly, a 50 mg/mL 5-ALA solution was prepared by suspending a 5-ALA powder (Sigma-Aldrich Korea, 5-aminolevulinic acid, #A3785, purity ≥98%) in a 0.9% NaCl solution. The rats were injected intraperitoneally with 500 mg/kg of the 5-ALA solution and after 2 hours, intramuscularly with Zoletil 50 (Virbac Laboratories, France) (0.1 mL/kg of body weight) and Rompun® (Bayer, Germany) (0.1 mL/kg of body weight). The anesthetized rats were laid down and the anterior neck and chest area were disinfected with povidone-iodine. In the surgical procedure, the trachea and the thyroid glands were exposed by incising the skin longitudinally from the midline of the neck. Both parathyroid glands showing a red fluorescent color were identified using blue light with a wavelength of 405±3 nm (Ergonomic LED Light Sources, Ocean Optics Inc., #LS-405, USA). In the case of the hemi-parathyroidectomy model, only one of both the parathyroid glands was removed. In the case of total parathyroidectomy and auto-transplantation model, both the parathyroid glands were removed, and then cut into small pieces, put into a small pocket made in the right sternocleidomastoid muscle (SCM), and the pocket was sutured with a […].
(§4) AXT914 was obtained by Novartis Pharma AG (Switzerland). The AXT914 was prepared in the form of a microemulsion by the following method. Briefly, after Cremophor RH40 was heated to 65° C. with stirring, the Cremophor RH40, Capmul MCM, triethyl citrate, and ethanol absolute were mixed at a weight ratio of 34.6%, 42%, 8.4%, and 10%, respectively. After a clear solution obtained by stirring the mixture for 1 hour was used as a vehicle and mixed with AXT914 (weight ratio of 5%), the resulting mixture was stirred at an ambient temperature for 8 to 12 hours. A finally obtained microemulsion preconcentrate was diluted 10 folds with deionized water (DW) and mixed vigorously before administration.
Referring to FIG. 1a, rats that had undergone hemi-parathyroidectomy were divided into a vehicle administration group (n=11), an AXT914 administration group 1 (n=10), and an AXT914 administration group 2 (n=11). A sham surgery group (n=9), which had undergone sham surgery, was also prepared. One week after the surgery, the AXT914 prepared in 1-3. was orally administered to the rats once daily for 2 weeks using a zonde needle. 5 mg/kg and 10 mg/kg of the AXT914 were administered to AXT914 administration groups 1 and 2, respectively. The vehicle (a mixture mixed with AXT914 in 1-3.) was orally administered to the vehicle administration group and the sham surgery group. Urine of the rats was collected for 24 hours on Day 13 after the start of drug administration. Blood was collected from the tails of the rats before the administration of drug (baseline) and from the tails of the rats at 0, 30, 120, 240, 360, and 720 minutes on Day 14 after the start of drug administration, and the rats were sacrificed. […]

[2] = test system: total parathyroidectomy and auto-transplantation model; experiment: Administration of AXT914 in total parathyroidectomy and auto-transplantation model (Experimental Schedule 2): serum PTH, calcium, phosphorus; conditions: 10 mg/kg oral once daily 3 weeks
Description: as §1, §2, §3, §4
Referring to FIG. 1b, rats that had undergone total parathyroidectomy and auto-transplantation were divided into a vehicle administration group (n=8) and an AXT914 administration group (n=8). A sham surgery group (n=6), which had undergone sham surgery, was also prepared. One week after the surgery, the AXT914 prepared in 1-3. was orally administered to the rats once daily for 3 weeks using a zonde needle, and the rats were sacrificed 1 week after the completion of administration and used for analysis. 10 mg/kg of AXT914 was administered to the AXT914 administration group. The vehicle was orally administered to the vehicle administration group and the sham surgery group. Blood was collected from the tails of the rats before the administration of drug (baseline) and from the tails of the rats on Day 21 and Day 28 after the start of drug administration.
Serum samples obtained by centrifugation of BD Microtainer SSTTM (prod. No. REF 365967, Becton Dickinson) containing blood, and were stored in a −80° C. deep freezer. […]

[3] = test system: total parathyroidectomy and auto-transplantation model; experiment: H&E staining of transplanted parathyroid tissue in SCM, total parathyroidectomy and auto-transplantation model (Experimental Schedule 3); conditions: Day 18, vs vehicle administration group
Description: as §1, §2
To identify the parathyroid gland, a photosensitization method using 5-aminolevulinic acid hydrochloride (5-ALA) was performed. Briefly, a 50 mg/mL 5-ALA solution was prepared by suspending a 5-ALA powder (Sigma-Aldrich Korea, 5-aminolevulinic acid, #A3785, purity ≥98%) in a 0.9% NaCl solution. The rats were injected intraperitoneally with 500 mg/kg of the 5-ALA solution and after 2 hours, intramuscularly with Zoletil 50 (Virbac Laboratories, France) (0.1 mL/kg of body weight) and Rompun® (Bayer, Germany) (0.1 mL/kg of body weight). […]

[4] = test system: total parathyroidectomy and auto-transplantation model; experiment: Immunohistochemical staining of transplanted parathyroid tissue in SCM, total parathyroidectomy and auto-transplantation model (Experimental Schedule 3); conditions: Day 18; for expression of Ki67 (marker of cell proliferation) in transplanted parathyroid tissue: between administration groups
Description: as §1, §2, §3, §4
Referring to FIG. 1c, rats that had undergone total parathyroidectomy and auto-transplantation were divided into a vehicle administration group (n=11), an AXT914 administration group 1 (n=11), and an AXT914 administration group 2 (n=11). A sham surgery group (n=7), which had undergone sham surgery, was also prepared. Six days after the surgery, the AXT914 prepared in 1-3. was orally administered to the rats once daily every 5 days weekly for 18 days using a zonde needle, and the rats were sacrificed on Day 18 of the completion of administration and used for analysis. 10 mg/kg and 20 mg/kg of the AXT914 were orally administered to AXT914 administration groups 1 and 2, respectively. The vehicle was orally administered to the vehicle administration group and the sham surgery group. Blood was collected from the tails of the rats before the administration of drug (baseline) and collected from the tails of the rats on Day 18 of the completion of drug administration. A histological analysis was performed by sacrificing the rats to isolate SCMs with parathyroid glands autotransplanted. […]

[5] = Day 21, vs vehicle administration group
[6] = Day 28 (7 days after drug discontinuation), vs vehicle administration group
[7] = 10 mg/kg oral 5 days weekly for 18 days, vs vehicle administration group
[8] = 20 mg/kg oral 5 days weekly for 18 days, vs vehicle administration group

C#CCOc1ccc2c(c1)c(-c1ccc(C(C)C)cc1)nc(=O)n2Cc1ccc(Br)cc1 [AXT914]
serum PTH level ([1]; 5 mg/kg oral once daily 2 weeks (group 1), Day 14, 120 minutes, vs vehicle administration group): higher than that of the vehicle administration group
serum PTH level ([1]; 5 mg/kg oral once daily 2 weeks (group 1), Day 14, vs sham surgery group): no statistical difference from the sham surgery group
serum calcium level ([1]; 5 mg/kg oral once daily 2 weeks, Day 14, all times, vs vehicle administration group): significantly higher calcium levels than those of the vehicle administration group
serum phosphorus level ([1]; 5 mg/kg oral once daily 2 weeks, Day 14, vs sham surgery group): no statistical difference from the sham surgery group
serum calcium level ([1]; 5 mg/kg oral once daily 2 weeks, Day 14 at 0, 30 and 720 minutes, vs sham surgery group): no statistical difference from those of the sham surgery group
serum phosphorus level ([1]; 5 mg/kg oral once daily 2 weeks, Day 14 at 30, 120 and 360 minutes, vs vehicle administration group): significantly lower
urine calcium/creatinine ratio ([1]; 5 mg/kg oral once daily, vs sham surgery group): no difference between the sham surgery group and the AXT914 administration groups
urine calcium/creatinine ratio ([1]; 5 mg/kg oral once daily, vs vehicle administration group): vehicle administration group had a significantly higher urine calcium/creatinine ratio than the sham surgery group and the AXT914 administration groups
serum PTH level ([1]; 10 mg/kg oral once daily 2 weeks (group 2), Day 14, all times, vs the other groups): significantly higher than those in the other groups
serum calcium level ([1]; 10 mg/kg oral once daily 2 weeks, Day 14, all times, vs vehicle administration group): significantly higher calcium levels than those of the vehicle administration group
serum phosphorus level ([1]; 10 mg/kg oral once daily 2 weeks, Day 14, vs sham surgery group): no statistical difference from the sham surgery group
serum calcium level ([1]; 10 mg/kg oral once daily 2 weeks, Day 14 at 0 and 30 minutes, vs sham surgery group): no statistical difference from those of the sham surgery group
serum phosphorus level ([1]; 10 mg/kg oral once daily 2 weeks, Day 14 at 30, 240, 360 and 720 minutes, vs vehicle administration group): significantly lower
urine calcium/creatinine ratio ([1]; 10 mg/kg oral once daily, vs sham surgery group): no difference between the sham surgery group and the AXT914 administration groups
urine calcium/creatinine ratio ([1]; 10 mg/kg oral once daily, vs vehicle administration group): vehicle administration group had a significantly higher urine calcium/creatinine ratio than the sham surgery group and the AXT914 administration groups
serum PTH level ([2]; Day 21, vs sham surgery group): lower than those in the sham surgery group
serum calcium level ([2]; Day 21, vs sham surgery group): no difference from those in the sham surgery group
serum phosphorus level ([2]; Day 21, vs sham surgery group): no difference from those in the sham surgery group
serum PTH level [2, 5]: significantly higher than those in the vehicle administration group
serum calcium level [2, 5]: significantly higher than those in the vehicle administration group
serum phosphorus level [2, 5]: significantly lower than those in the vehicle administration group
serum calcium level ([2]; Day 28 (7 days after drug discontinuation), vs sham surgery group): lower than those in the sham surgery group
serum calcium level [2, 6]: still higher than those in the vehicle administration group
serum phosphorus level [2, 6]: lower than those in the vehicle administration group, but there was no statistical difference
area increase of transplanted parathyroid tissue (H&E staining) ([3]; 10 mg/kg oral 5 days weekly for 18 days (group 1)): 36%
area increase of transplanted parathyroid tissue (H&E staining) ([3]; 20 mg/kg oral 5 days weekly for 18 days (group 2), significant): about 3 times
expression of Ki67 (marker of cell proliferation) in transplanted parathyroid tissue ([4]; 10 mg/kg oral 5 days weekly for 18 days): not different between the administration groups
FGF2 positive cells in transplanted parathyroid tissue [4, 7]: not statistically significant, but showed an increasing pattern
increase in the expression of VEGFA in transplanted parathyroid tissue [4, 7]: about 6 fold
increase of expression level of PTH in transplanted parathyroid tissue [4, 7]: about 2 fold
increase of number of CD31 positive cells in transplanted parathyroid tissue [4, 7]: about 3 folds
expression of Ki67 (marker of cell proliferation) in transplanted parathyroid tissue ([4]; 20 mg/kg oral 5 days weekly for 18 days): not different between the administration groups
FGF2 positive cells in transplanted parathyroid tissue [4, 8]: not statistically significant, but showed an increasing pattern
expression of MCL1 in transplanted parathyroid tissue [4, 8]: not statistically significant in AXT914 administration group 2, but showed an increasing pattern
increase in the expression of VEGFA in transplanted parathyroid tissue [4, 8]: about 10 fold
increase of expression level of PTH in transplanted parathyroid tissue [4, 8]: about 2 fold
increase of number of CD31 positive cells in transplanted parathyroid tissue [4, 8]: about 4.5 folds
